The structures appear in SMILES notation.

Broadly, the Ki is a measure of affinity in units of concentration, obtained from inhibition or displacement.

Sequence of hNOX1 (Q9Y5S8 whole entry): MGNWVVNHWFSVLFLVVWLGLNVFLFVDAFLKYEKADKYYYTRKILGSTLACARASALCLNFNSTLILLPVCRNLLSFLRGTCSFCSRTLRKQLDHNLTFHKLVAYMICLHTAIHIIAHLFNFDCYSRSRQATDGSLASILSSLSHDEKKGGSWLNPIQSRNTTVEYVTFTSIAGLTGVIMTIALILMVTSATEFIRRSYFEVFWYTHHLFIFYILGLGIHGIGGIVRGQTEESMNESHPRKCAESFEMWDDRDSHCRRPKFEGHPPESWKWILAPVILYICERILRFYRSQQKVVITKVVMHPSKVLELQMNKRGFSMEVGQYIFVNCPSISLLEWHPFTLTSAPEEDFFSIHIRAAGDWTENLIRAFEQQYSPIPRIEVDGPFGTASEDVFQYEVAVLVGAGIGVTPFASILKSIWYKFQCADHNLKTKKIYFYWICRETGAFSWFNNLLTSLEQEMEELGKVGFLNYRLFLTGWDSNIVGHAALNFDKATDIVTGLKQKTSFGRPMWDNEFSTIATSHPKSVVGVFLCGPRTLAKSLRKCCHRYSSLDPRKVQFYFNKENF
Sequence of hNOX1 (P13498 whole entry partner): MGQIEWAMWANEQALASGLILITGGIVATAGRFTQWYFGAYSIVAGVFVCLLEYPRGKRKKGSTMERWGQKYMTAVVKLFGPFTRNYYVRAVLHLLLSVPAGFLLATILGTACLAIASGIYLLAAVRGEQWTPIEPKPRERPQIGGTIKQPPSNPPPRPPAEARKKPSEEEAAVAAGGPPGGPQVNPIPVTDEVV

In the test the target is hNOX1 (Homo sapiens (Human), UniProt Q9Y5S8). The test can be described thus: ROS production measurement on hNOX1 membranes (Amplex Red fluorescence assay, assay 1). In kind it is biochemical. Conditions: assay 1: membranes from CHO cells overexpressing hNox1, Amplex Red/HRP fluorescence, NADPH 30 μM; non linear regression (GraphPad Prism); read-out: Nox1 inhibitory constant Ki. As to the method:
Reactive oxygen species (ROS) production generated by hNOX1 enzyme was measured by fluorescence in both cellular and membrane-based assays using the Amplex® Red reagent. In the presence of horseradish peroxidase (HRP), the Amplex® Red reagent (10-acetyl-3,7-dihydroxyphenoxazine, AR), which is a colorless and nonfluorescent derivative of dihydroresorufin, reacts with H2O2 with a 1:1 stoichiometry to produce highly fluorescent resorufin at an excitation and emission wavelengths of 544 nm and 590 nm, respectively.
After resuspension in sonication buffer (11% sucrose, 120 mM NaCl, 1 mM EGTA in PBS, pH 7.4), cells were broken by sonication and centrifuged (200 g, 10 min). The supernatant was layered onto a 17/40% (w/v) discontinuous sucrose gradient and centrifuged (150,000 g for 30 min). Membrane fractions were collected from the 17/40% interface, aliquoted in 10 μl samples and were stored at −80° C. Protein concentration was determined with Bradford reagent. Flavin Adenine Dinucleotide (FAD) (catalog # F6625-500MG), MgCl2 (catalog # M8266-100G), Phosphatidic Acid (PA) (catalog # P3591-50MG) were purchased from Sigma-Aldrich. […] NADPH (catalog #A1395, 0500) was purchased from Applichem. Amplex red (AR) (catalog # A22177) was purchased from Invitrogen. […] FLUOstar OPTIMA microplate reader was supplied by BMG Labtech (Germany). Zephyr® Compact Liquid Handling Workstation was supplied by PerkinElmer (Germany).
Assay 1: ROS Production Measurement on hNOX1 Membranes
All solutions were placed on ice and protected from light.
The NADPH was dissolved in water at a concentration of 12 mM and was transferred in a metal transfer plate kept at 4° C. The NADPH was added to the assay plate to initiate the reaction just before the measurement.
Serial dilution (1:3, 10 serial dilution) of the compounds was performed in 100% DMSO in 96 well polypropylene plate—Row B-H […], Row A, Column 1-10 contained reference compound. Starting concentration was 10^−2 M (10 mM). Final concentration in assay was 10^−4 M (100 μM). Compounds were diluted twice in PBS buffer by transferring 30 μl/well of PBS into 30 μl/well compounds sample in DMSO using Zephyr® Compact Liquid Handling Workstation. Control wells-columns 1 and 12-contained 60 μl DMSO in 50% PBS pH7.
Reaction mixture is dispensed using Zephyr® Compact Liquid Handling Workstation. 90 μl of mix with membrane were dispensed into 96 well black plates—Column 2-11, Column 1 Row A-D, Column 12 Row E-H. 90 μl of control mix were dispensed into assay plate—Column 1 Row E-H, Column 12 Row A-D, which are wells for measuring background signal. 2 μl of compounds were dispensed into each well of assay plate using Zephyr® Compact Liquid Handling Workstation. The reaction mixture with compounds was incubated in assay plates for 20 min at 37° C. in a Titramax microplate incubator with gentle agitation. 10 μl of NADPH is dispensed to the assay plate. Fluorescence reading was recorded with the FLUOstar OPTIMA microplate reader for 10 min at 37° C. (8 cycles, 1 cycle duration 55 sec).
`COc1cc(C(=O)Nc2nnc(-c3ccncc3)s2)ccc1O[C@@H](C)Cc1ccccc1` [(116)]: the Ki was determined as 46 nM. `COc1cc(C(=O)Nc2nnc(-c3ccncc3)s2)ccc1OCc1ccc(C)cn1` [(90)]: the Ki was 100 nM. Turning to `COc1cc(C(=O)Nc2nnc(-c3ccncc3)s2)ccc1O[C@@H]1CCc2ccccc21` [(80)], the Ki was found to be 27 nM. On to `C[C@H](Oc1ncc(C(=O)Nc2nnc(-c3ccncc3)s2)cc1NCCN(C)C)c1ccccc1` [(51)], for which the Ki was found to be 21 nM. On to `O=C(Nc1nnc(-c2ccncc2)s1)c1cnc(O[C@@H](CO)c2ccccc2)c(Cl)c1` [(108)], for which the Ki is 92 nM. Turning to `COc1cc(C(=O)Nc2nnc(-c3ccncc3)s2)ccc1OC1CCCc2ccccc21` (stereo not drawn) [(82)], the Ki turned out to be 38 nM. Take `O=C(Nc1nnc(-c2ccncc2)s1)c1ccc(OCc2ccccc2)cc1F` [(168)]: the Ki was 100 nM. For `COc1cc(C(=O)Nc2nnc(-c3ccncn3)s2)ccc1OCc1ccccc1` [(111)] the value was 75 nM. Regarding `CN(C)C(=O)[C@H](Cc1ccccc1)Oc1ccc(C(=O)Nc2nnc(-c3ccncc3)s2)cn1` [(174)], the Ki was found to be 96 nM.

For the molecule `COc1cc(C(=O)Nc2nnc(-c3ccncc3)s2)ccc1OC(c1ccccc1)C1CC1` (stereo not drawn) [(154)], the Ki came to 33 nM. As for `CC(Oc1ccc(C(=O)Nc2nnc(-c3ccncc3)s2)cc1OCC1CCNCC1)c1ccccc1` (stereo not drawn) [Example 1, 4-(1-phenylethoxy)-3-(piperidin-4-ylmethoxy)-N-(5-(pyridin-4-yl)-1,3,4-thiadiazol-2-yl)benzamide], the Ki turned out to be 18 nM. Turning to `COc1cc(C(=O)Nc2nnc(-c3ccncc3)s2)ccc1O[C@@H](CO)c1ccccc1` [Example 7, (R)-4-(2-hydroxy-1-phenylethoxy)-3-methoxy-N-(5-(pyridin-4-yl)-1,3,4-thiadiazol-2-yl)benzamide], the Ki was 22 nM. `COc1cc(C(=O)Nc2nnc(-c3ccnc(C)c3)s2)ccc1O[C@@H](CN(C)C)c1ccccc1` [(115)]: the Ki came to 110 nM. Turning to `COc1ccc(COc2ccc(C(=O)Nc3nnc(-c4ccncc4)s3)cc2OC)cc1` [(92)], the Ki came out at 32 nM. Take `C[C@H](Oc1ncc(C(=O)Nc2nnc(-c3ccncc3)s2)cc1NCCN1CCOCC1)c1ccccc1` [(68)]: the Ki amounted to 72 nM.

As to `Cc1nc(OCc2ccccc2)ccc1C(=O)Nc1nnc(-c2ccncc2)s1` [(45)], the inhibitory constant (Ki) worked out at 77 nM. Turning to `COc1ccc(CCCOc2ccc(C(=O)Nc3nnc(-c4ccncc4)s3)cn2)cc1` [(180)], the Ki was determined as 32 nM. With `CC(C)(O)[C@H](Oc1ncc(C(=O)Nc2nnc(-c3ccncc3)s2)cc1Cl)c1ccccc1` [Example 29, (R)-5-chloro-6-(2-hydroxy-2-methyl-1-phenylpropoxy)-N-(5-(pyridin-4-yl)-1,3,4-thiadiazol-2-yl)nicotinamide], the Ki was found to be 64 nM. On to `CNc1cc(C(=O)Nc2nnc(-c3ccncc3)s2)cnc1O[C@@H](CCN(C)C)c1ccccc1` [(75)], for which the Ki came to 90 nM. As to `COc1cc(C(=O)Nc2nnc(-c3ccncc3)s2)ccc1OC1CCc2ncccc21` (stereo not drawn) [(151)], the Ki came to 15 nM.

Regarding `CC(Cc1ccccc1)Oc1ccc(C(=O)Nc2nnc(-c3ccncc3)s2)cn1` (stereo not drawn) [Example 34, 6-((1-phenylpropan-2-yl)oxy)-N-(5-(pyridin-4-yl)-1,3,4-thiadiazol-2-yl)nicotinamide], the Ki came out at 45 nM. Take `COc1cc(C(=O)Nc2nnc(-c3ccncc3)s2)ccc1O[C@H](CO)c1ccc(F)cc1` [(199)]: the Ki was 47 nM. Take `COc1cc(C(=O)Nc2nnc(-c3ccncc3)s2)ccc1O[C@H](CN(C)C)c1ccc(F)cc1` [(200)]: the Ki came to 110 nM. Consider `COc1cc(C(=O)Nc2nnc(-c3ccncc3F)s2)ccc1O[C@@H](C)c1ccccn1` [(103)], for which the Ki turned out to be 13 nM. Consider `COCCOc1cc(C(=O)Nc2nnc(-c3ccncc3)s2)ccc1OC(C)c1ccccc1` (stereo not drawn) [(86)], for which the Ki amounted to 74 nM. For `COCC(Oc1ccc(C(=O)Nc2nnc(-c3ccncc3)s2)cc1OC)c1ccccc1` (stereo not drawn) [(183)] the value was 55 nM; for `C[C@H](Oc1ncc(C(=O)Nc2nnc(-c3ccncc3)s2)cc1NC1CCN(C)CC1)c1ccccc1` [(67)], 75 nM. Take `CC(Oc1ccc(C(=O)Nc2nnc(-c3ccncc3)s2)cc1OCCN(C)C)c1ccccc1` (stereo not drawn) [(85)]: the Ki amounted to 37 nM.

As for `COc1cc(C(=O)Nc2nnc(-c3ccncc3)s2)ccc1Cn1ccc2ccccc21` [(121)], the Ki was determined as 35 nM.

For the molecule `COc1cc(C(=O)Nc2nnc(-c3ccncc3F)s2)ccc1O[C@@H](CN(C)C)c1ccccc1` [(106)], the Ki stood at 22 nM. Take `Cc1nc(O[C@@H](C)c2ccccc2)ccc1C(=O)Nc1nnc(-c2ccncc2)s1` [(43)]: the Ki turned out to be 79 nM.

In the case of `COc1cc(C(=O)Nc2nnc(-c3ccncc3)s2)ccc1O[C@@H](CN(C)C)c1ccc(F)cc1` [(198)], the Ki is 25 nM. For `COc1cc(C(=O)Nc2nnc(-c3ccncc3)s2)ccc1O[C@@H](CN1CCCC1)c1ccccc1` [Example 10, (R)-3-methoxy-4-(1-phenyl-2-(pyrrolidin-1-yl)ethoxy)-N-(5-(pyridin-4-yl)-1,3,4-thiadiazol-2-yl)benzamide], the Ki came out at 49 nM.

Take `COc1cc(C(=O)Nc2nnc(-c3ccncc3)s2)ccc1CN1Cc2ccccc2C1` [Example 40, 4-(isoindolin-2-ylmethyl)-3-methoxy-N-(5-(pyridin-4-yl)-1,3,4-thiadiazol-2-yl)benzamide]: the Ki amounted to 190 nM. For `COc1cc(C(=O)Nc2nnc(-c3ccncc3)s2)ccc1OCc1ccccc1F` [(93)] the value was 52 nM; for `COc1cc(C(=O)Nc2nnc(-c3ccncn3)s2)ccc1O[C@@H](C)c1ccccc1` [(157)], 110 nM. In the case of `COc1cc(C(=O)Nc2nnc(-c3ccncc3)s2)ccc1OCc1cc(C2CC2)on1` [(98)], the Ki was 74 nM. Take `O=C(Nc1nnc(-c2ccncc2)s1)c1ccc(OC2CCc3ccccc32)nc1` (stereo not drawn) [(136)]: the Ki came out at 47 nM.

For the molecule `C[C@H](Oc1ncc(C(=O)Nc2nnc(-c3ccncc3)s2)cc1NCc1cn(C)cn1)c1ccccc1` [(66)], the Ki turned out to be 66 nM. Consider `COc1cc(C(=O)Nc2nnc(-c3ccncc3)s2)ccc1OC1COc2ccccc21` (stereo not drawn) [(152)], for which the Ki worked out at 38 nM.

For `COc1cc(C(=O)Nc2nnc(-c3ccncc3)s2)ccc1OCc1cscn1` [(83)], the Ki was determined as 80 nM. With `C[C@H](Oc1ncc(C(=O)Nc2nnc(-c3ccncc3)s2)cc1NCCO)c1ccccc1` [(65)], the Ki came out at 51 nM. In the case of `COc1cc(C(=O)Nc2nnc(-c3ccncc3)s2)ccc1OCc1nccn1C` [Example 19, 3-methoxy-4-((1-methyl-1H-imidazol-2-yl)methoxy)-N-(5-(pyridin-4-yl)-1,3,4-thiadiazol-2-yl)benzamide], the Ki was 220 nM. Regarding `COc1cc(C(=O)Nc2nnc(-c3ccncc3)s2)ccc1OC1Cc2ccccc2C1` [(158)], the inhibition constant (Ki) stood at 22 nM.

As to `CN1CCN(c2cc(C(=O)Nc3nnc(-c4ccncc4)s3)cnc2OCc2ccccc2)CC1` [Example 24, 6-(benzyloxy)-5-(4-methylpiperazin-1-yl)-N-(5-(pyridin-4-yl)-1,3,4-thiadiazol-2-yl)nicotinamide], the Ki stood at 62 nM. For the molecule `COc1cc(C(=O)Nc2nnc(-c3ccncc3F)s2)ccc1O[C@@H](CO)c1ccccc1` [(105)], the Ki came to 19 nM. For `COc1cc(C(=O)Nc2nnc(-c3ccncc3)s2)ccc1OCc1cc(C)on1` [(91)] the value was 78 nM. As to `CCC(Oc1ccc(C(=O)Nc2nnc(-c3ccncc3)s2)cn1)c1ccccc1` (stereo not drawn) [(134)], the Ki was determined as 71 nM.

`COc1cc(C(=O)Nc2nnc(-c3ccncc3)s2)ccc1OCc1cccnc1C` [(89)]: the Ki is 91 nM. For the molecule `COc1cc(C(=O)Nc2nnc(-c3ccncn3)s2)ccc1O[C@@H](C)c1ccccn1` [(102)], the Ki turned out to be 87 nM.

Take `C[C@H](Oc1ncc(C(=O)Nc2nnc(-c3ccncc3)s2)cc1OCC1CCOCC1)c1ccccc1` [Example 37, (S)-6-(1-phenylethoxy)-N-(5-(pyridin-4-yl)-1,3,4-thiadiazol-2-yl)-5-((tetrahydro-2H-pyran-4-yl)methoxy)nicotinamide]: the Ki amounted to 38 nM.

These data come from patent publication US10130619B2, “Amido thiadiazole derivatives as NADPH oxidase inhibitors” (GENKYOTEX SUISSE SA, priority 2014, dated 2018).
